Assays:
[1] = test system: FIV-p24; test: Oral secretion IgG antibody titers (ELISA) after vaccination of cats; assay type: in vivo, feline immunodeficiency virus (FIV); conditions: Week 8, lowest dilution 1:4, elution factor 4-fold
Protocol: (§1) Animals: Eleven (11) female outbred cats>24 weeks old that were free of FIV, feline leukemia virus (FeLV) and feline infectious peritonitis virus were employed. The animals were restrained for the application of test articles to mucous membranes and collection of blood and mucosal secretions. Sedation, if necessary, was induced by subcutaneous administration of ketamine hydrochloride (22 mg/kg) and acepromazine maleate (0.1 mg/kg). Euthanasia was accomplished with a lethal overdose of barbiturates. All activities were approved by the Institutional Animal Care and Use Committee and supervised by veterinary staff.
(§2) Vaccine Preparation: Fel-O-Vax FIV (Fort Dodge Animal Health, Fort Dodge, Iowa) and A(1-7) was combined in a constant volume of 2% hydroxyethyl cellulose (2% HEC). The range of concentrations of A(1-7) ranged from 0 to 10 mg/mL with a constant 0.33 mL of Fel-O-Vax FIV suspended in each mL of the gel applied for vaccination purposes. Two control animals received intramuscular Fel-O-Vax FIV at baseline, week 3 and week 5. One control animal had mucosal vaccination with Fel-O-Vax alone suspended in the 2% HEC without A(1-7) and one control animal received intramuscular Fel-O-Vax FIV with 0.3 mg/kg of A(1-7) at baseline, week 3 and week 5.
(§3) Delivery of angiotensin(1-7) and FIV vaccine to mucosal surfaces: 2% HEC, a viscous gel, was used as the vehicle for the topical delivery of angiotensin(1-7) and FIV vaccine. The topical vaccine was applied to the mucosal surface weekly for 6 consecutive weeks. 1.0 mL was applied to the muzzle for oral mucosal vaccination and 1.0 mL and 0.2 mL was instilled in the rectal and vaginal vaults, respectively for mucosal vaccination at these sites.
(§4) Measurement of Local Immune Response: The Weck-Cel Surgical Spear (Windsor Biomedical, Newton, N.H.) was used to obtain secretions. Once inserted, the sponge is allowed to remain in place for 5 minutes. The secretions were extracted by centrifugation with 300 μL of a buffer solution. The buffer solution is prepared by mixing 50 μL of 100× protease inhibitor cocktail and 250 μL of 10% Igepal (Sigma, St Louis, Mo., U.S.A.) with 4.7 ml of phosphate-buffered saline (PBS) containing 0.25% bovine serum albumin (BSA, Fraction V; Sigma). The 100× protease inhibitor cocktail contains 100 μg/mL aprotinin, 500 μg/mL leupeptin, 100 μg/mL bestatin (all Sigma), and 50 μg/mL 4-(2-Aminoethyl)-benzenesulfonyl fluoride hydrochloride (Roche Applied Sciences, U.S.A.) in phosphate buffered saline.
(§5) The local immune response in mucosal secretions was evaluated against the homologous FIV-p24 antigen (Cell Biolabs, Inc, San Diego, Calif.) or the heterologous HIV-gp120 antigen (ImmunoDiagnostics, Inc, Woburn, Mass.). […] Plates were read at 450 nm.

[2] = test system: FIV-p24 antigen; test: Rectal secretion SIgA antibody titers (ELISA) after vaccination of cats; assay type: in vivo, feline immunodeficiency virus (FIV); conditions: for SIgA Anti-FIV-p24: rectal, lowest dilution Undilute
Protocol: as §1, §2, §3, §4
(§6) The local immune response in mucosal secretions was evaluated against the homologous FIV-p24 antigen (Cell Biolabs, Inc, San Diego, Calif.) or the heterologous HIV-gp120 antigen (ImmunoDiagnostics, Inc, Woburn, Mass.). Plates were prepared with 50 ng/mL FIV-p24 antigen or with 500 ng/mL HIV-gp120 antigen (Bachem Americans, Inc, Torrance, Calif.) incubated over night at 4° C., washed and the target sample added and incubated overnight again at 4° C. The plates were washed and the indicator goat anti-feline IgG (Accurate Chemical & Scientific Corp., Westbury, N.Y., working titer 1:10,000) or goat anti-feline IgA (Accurate Chemical & Scientific Corp., Westbury, N.Y., working titer 1:1,000) added and incubated for 24 hours at 4° C. Following a final wash, substrate solution was added. The stop solution was added after 15 minutes for the IgG reaction and after 30 minutes for the IgA reaction. Plates were read at 450 nm.

[3] = test system: HIV-gp120 antigen; test: as above; assay type: in vivo, human immunodeficiency virus (HIV); conditions: parenteral vaccination or topical application of Fel-O-Vax FIV with A(1-7)
Protocol: as §1
Vaccine Preparation: Fel-O-Vax FIV (Fort Dodge Animal Health, Fort Dodge, Iowa) and A(1-7) was combined in a constant volume of 2% hydroxyethyl cellulose (2% HEC). The range of concentrations of A(1-7) ranged from 0 to 10 mg/mL with a constant 0.33 mL of Fel-O-Vax FIV suspended in each mL of the gel applied for vaccination purposes. Two control animals received intramuscular Fel-O-Vax FIV at baseline, week 3 and week 5. […]
as §5

[4] = test system: HIV-gp120 antigen; test: Oral secretion SIgA antibody titers (ELISA) after vaccination of cats; assay type: in vivo, human immunodeficiency virus (HIV); conditions: for SIgA anti-HIV-gp120: oral, Week 8, lowest dilution 1:4, elution factor 4-fold
Protocol: as §1, §2, §3, §4, §6

[5] = test system: FIV-p24 antigen; test: Serum IgG antibody titers (ELISA) after vaccination of cats; assay type: in vivo, feline immunodeficiency virus (FIV); conditions: for Serum IgG anti-FIVp24 antigen Titers: lowest dilution 1:20
Protocol: as §1, §2, §3, §6

[6] = test system: HIV-gp120 antigen; test: Vaginal secretion SIgA antibody titers (ELISA) after vaccination of cats; assay type: in vivo, human immunodeficiency virus (HIV); conditions: for SIgA Anti-HIV gp120: vaginal, Week 8, lowest dilution 1:4, elution factor 300-fold
Protocol: as §1, §2, §3
Measurement of Local Immune Response: The Weck-Cel Surgical Spear (Windsor Biomedical, Newton, N.H.) was used to obtain secretions. […]
as §5

[7] = topical Fel-O-Vax FIV + 0.1 A(1-7) in 2% HEC
[8] = topical Fel-O-Vax FIV + 10.0 A(1-7) in 2% HEC
[9] = topical Fel-O-Vax FIV + 0.1 A(1-7) in 2% HEC, Week 8
[10] = topical Fel-O-Vax FIV + 0.4 A(1-7) in 2% HEC, Week 4
[11] = topical Fel-O-Vax FIV + 5.0 A(1-7) in 2% HEC, Week 4
[12] = topical Fel-O-Vax FIV + 5.0 A(1-7) in 2% HEC, Week 6
[13] = topical Fel-O-Vax FIV + 5.0 A(1-7) in 2% HEC, Week 8
[14] = topical Fel-O-Vax FIV + 7.5 A(1-7) in 2% HEC, Week 2
[15] = topical Fel-O-Vax FIV + 7.5 A(1-7) in 2% HEC, Week 4
[16] = topical Fel-O-Vax FIV + 7.5 A(1-7) in 2% HEC, Week 8
[17] = topical Fel-O-Vax FIV + 10.0 A(1-7) in 2% HEC, Week 2
[18] = topical Fel-O-Vax FIV + 10.0 A(1-7) in 2% HEC, Week 4
[19] = topical Fel-O-Vax FIV + 10.0 A(1-7) in 2% HEC, Week 6
[20] = topical Fel-O-Vax FIV + 10.0 A(1-7) in 2% HEC, Week 8

## Asp-Arg-Val-Tyr-Ile-His-Pro (DRVYIHP) [A(1-7)]
[1]; [7]
  IgG anti-FIV-p24: Negative
[1]; topical Fel-O-Vax FIV + 0.2 A(1-7) in 2% HEC
  IgG anti-FIV-p24: Negative
[1]; topical Fel-O-Vax FIV + 0.3 A(1-7) in 2% HEC
  IgG anti-FIV-p24: Negative
[1]; [8]
  IgG anti-FIV-p24: Negative
[2]; both methods of vaccination (parenteral or topical Fel-O-Vax FIV with A(1-7))
  SIgA-anti-FIV-p24 (rectal, Table 4): Low levels
[2]; injection of A(1-7) with FIV antigens
  mucosal anti-FIV antibodies in the rectum: increased
[2]; IM Fel-O-Vax FIV + 0.3 mg/kg A(1-7), Week 4
  SIgA Anti-FIV-p24: Undilute
[2]; IM Fel-O-Vax FIV + 0.3 mg/kg A(1-7), Week 6
  SIgA Anti-FIV-p24: Negative
[2]; IM Fel-O-Vax FIV + 0.3 mg/kg A(1-7), Week 8
  SIgA Anti-FIV-p24: Undilute
[2]; topical Fel-O-Vax FIV + 0.1 A(1-7) in 2% HEC, Week 2
  SIgA Anti-FIV-p24: Undilute
[2]; topical Fel-O-Vax FIV + 0.1 A(1-7) in 2% HEC, Week 6
  SIgA Anti-FIV-p24: Undilute
[2]; [9]
  SIgA Anti-FIV-p24: Undilute
[2]; topical Fel-O-Vax FIV + 0.2 A(1-7) in 2% HEC, Week 2
  SIgA Anti-FIV-p24: Undilute
[2]; topical Fel-O-Vax FIV + 0.2 A(1-7) in 2% HEC, Week 6
  SIgA Anti-FIV-p24: Negative
[2]; topical Fel-O-Vax FIV + 0.2 A(1-7) in 2% HEC, Week 8
  SIgA Anti-FIV-p24: Negative
[2]; topical Fel-O-Vax FIV + 0.3 A(1-7) in 2% HEC, Week 2
  SIgA Anti-FIV-p24: Undilute
[2]; topical Fel-O-Vax FIV + 0.3 A(1-7) in 2% HEC, Week 4
  SIgA Anti-FIV-p24: Undilute
[2]; topical Fel-O-Vax FIV + 0.3 A(1-7) in 2% HEC, Week 6
  SIgA Anti-FIV-p24: Negative
[2]; topical Fel-O-Vax FIV + 0.3 A(1-7) in 2% HEC, Week 8
  SIgA Anti-FIV-p24: Negative
[2]; [10]
  SIgA Anti-FIV-p24: Undilute
[2]; topical Fel-O-Vax FIV + 0.4 A(1-7) in 2% HEC, Week 6
  SIgA Anti-FIV-p24: Undilute
[2]; [11]
  SIgA Anti-FIV-p24: Negative
[2]; [12]
  SIgA Anti-FIV-p24: Negative
[2]; [13]
  SIgA Anti-FIV-p24: Negative
[2]; [14]
  SIgA Anti-FIV-p24: Negative
[2]; [15]
  SIgA Anti-FIV-p24: Negative
[2]; [16]
  SIgA Anti-FIV-p24: Negative
[2]; [17]
  SIgA Anti-FIV-p24: Negative
[2]; [18]
  SIgA Anti-FIV-p24: Negative
[2]; [19]
  SIgA Anti-FIV-p24: Negative
[2]; [20]
  SIgA Anti-FIV-p24: Negative
[3]
  SIgA anti-HIV-gp120 (rectal, Table 4): High levels
[4]; A(1-7) combined with the intramuscular injections of Fel-O-Vax FIV
  SIgA-HIV-gp120 antibodies in oral secretions: even higher titers
[4]; increasing A(1-7) concentrations in the topical vaccine
  dose response of oral SIgA-anti-HIV-gp120 antibody titers: initial raise and then decline
[4]; topical Fel-O-Vax FIV + 7.5 A(1-7) in 2% HEC
  SIgA anti-HIV-gp120: Negative
[4]; [8]
  SIgA anti-HIV-gp120: Negative
[4]; topical application of the FIV antigen and A(1-7), compared with intramuscular
  SIgA-anti-HIV-gp120 antibody titers in oral secretions: Comparable levels
[5]; topical Fel-O-Vax FIV + 0.1 A(1-7) in 2% HEC, Week 4
  Serum IgG anti-FIVp24 antigen Titers: Negative
[5]; [9]
  Serum IgG anti-FIVp24 antigen Titers: Negative
[5]; topical Fel-O-Vax FIV + 0.2 A(1-7) in 2% HEC, Week 4
  Serum IgG anti-FIVp24 antigen Titers: Negative
[5]; [10]
  Serum IgG anti-FIVp24 antigen Titers: Negative
[5]; topical Fel-O-Vax FIV + 0.4 A(1-7) in 2% HEC, Week 8
  Serum IgG anti-FIVp24 antigen Titers: Negative
[5]; topical Fel-O-Vax FIV + 5.0 A(1-7) in 2% HEC, Week 2
  Serum IgG anti-FIVp24 antigen Titers: Negative
[5]; [11]
  Serum IgG anti-FIVp24 antigen Titers: Negative
[5]; [12]
  Serum IgG anti-FIVp24 antigen Titers: Negative
[5]; [13]
  Serum IgG anti-FIVp24 antigen Titers: Negative
[5]; [14]
  Serum IgG anti-FIVp24 antigen Titers: Negative
[5]; [15]
  Serum IgG anti-FIVp24 antigen Titers: Negative
[5]; topical Fel-O-Vax FIV + 7.5 A(1-7) in 2% HEC, Week 6
  Serum IgG anti-FIVp24 antigen Titers: Negative
[5]; [16]
  Serum IgG anti-FIVp24 antigen Titers: Negative
[5]; [17]
  Serum IgG anti-FIVp24 antigen Titers: Negative
[5]; [18]
  Serum IgG anti-FIVp24 antigen Titers: Negative
[5]; [19]
  Serum IgG anti-FIVp24 antigen Titers: Negative
[5]; [20]
  Serum IgG anti-FIVp24 antigen Titers: Negative
[5]; topical vaccination, increasing dose levels of A(1-7)
  dose response effect on serum IgG antibody titers to FIVp24 antigen: no discernible dose response effect
[6]; Topical application of FIV antigen with A(1-7)
  SIgA-anti-HIV-gp120 antibodies in vaginal secretions: substantial
[6]; [7]
  SIgA Anti-HIV gp120: Negative
[6]; topical Fel-O-Vax FIV + 5.0 A(1-7) in 2% HEC
  SIgA Anti-HIV gp120: Negative

From patent publication US20140205631A1, “Stimulation of vaccination by angiotensin peptides” (University of Southern California, priority 2013, published 2014)
